Test results: patent US11865126B2, “Method for treating anxiety disorders, headache disorders, and eating disorders with psilocybin” (priority 2019, dated 2024)

System: healthy subjects
Test: Phase 1 healthy volunteer study, single oral dose: treatment-emergent adverse events
Type: in vivo, human
Method: A Phase 1 randomized, double-blind, placebo-controlled study to evaluate the effect of psilocybin on cognitive and emotional processing as compared to placebo in healthy volunteers was conducted. The study investigated the short-term (Day 7) and long-term (Day 28) effects of moderate (10 mg) and high doses (25 mg) of psilocybin on key domains of cognition, such as episodic memory, attention, working and spatial memory, social cognition and elements of executive function, including cognitive flexibility.
90 healthy subjects were studied. Approximately 50% of the subjects were psilocybin-naïve. For subjects with prior psilocybin experience, the last exposure was at least 1 year prior to the signing of the Informed Consent Form (ICF). Approximately 50% of the subjects were female. Subjects were stratified by sex and age (18-35 years old; >35 years old).
Each subject was assigned 1 treatment bottle containing 5 capsules packaged in a double-blind fashion, depending on the randomized treatment arm, the bottle contained one of the following: • a. Psilocybin 10 mg: 2×5-mg oral psilocybin capsules plus 3× placebo capsules • b. Psilocybin 25 mg: 5×5-mg oral psilocybin capsules • c. Placebo: 5× placebo capsules
Each 5-mg oral psilocybin capsule comprised 5 mg crystalline psilocybin in the form of Polymorph A, 12.5 mg of SMCC 50, 79.5 mg of SMCC 90, 1 mg sodium starch glycolate, 1 mg colloidal silicon dioxide, and 1 mg sodium stearyl fumarate
Adverse events: Throughout the course of the study, all AEs were monitored and recorded. Each AE was classified according to the following criteria: • i. […] Moderate: The AE produces some impairment of functioning, but is not hazardous to the subject's health. • iii. Severe: The AE produces significant impairment of functioning or incapacitation and is a definite hazard to the subject's health.
Selected Adverse Events of included: • (a) Euphoric mood • (b) Dissociative disorder • (c) Hallucination • (d) Psychotic disorder • (e) Cognitive disorder • (f) Disturbance in attention • (g) Altered mood • (h) Impairment of psychomotor skills • (i) Inappropriate affect • (j) Overdose • (k) Intentional product misuse • (l) Illusion
For example, drug-induced hepatitis that resolved without evidence of hepatic failure would not be considered life threatening even though drug-induced hepatitis can be fatal. • (c) Inpatient hospitalization or prolongation of existing hospitalization. • (d) Persistent or significant disability/incapacity. • (e) Congenital anomaly/birth defect in the offspring of a subject who received psilocybin. • (f) Other: Important medical events that may not result in death, be life-threatening, or require hospitalization, may be considered an SAE when, based upon appropriate medical judgment, they may jeopardize the subject and may require medical or surgical intervention to prevent one of the outcomes listed in this definition. […] Visits:
Visit 3 (V3): Drug Administration (Day 0): The subject was asked to eat a light breakfast at least two hours prior to coming to the clinic for study drug administration. On Day 0 (V3), the subject underwent the SSTS, had vital signs obtained, medications reviewed, AEs recorded and eligibility reviewed prior to being randomized to study drug. The study drug was administered to up to six subjects simultaneously in individual beds separated by a curtain. The subject was invited to put on eyeshades and headphones, lie down and listen to calming music for the rest of the session (six hours). The subject was supported 1:1 with a chaperone and supervised by the study psychiatrist and lead therapist.
Recording of adverse events and prior/concomitant medication was performed at each visit.
During administration of psilocybin, each subject received one on one support from a trained assisting therapist and each dosing session was supervised by a study psychiatrist and a lead therapist. […]

`CN(C)CCc1c[nH]c2cccc(OP(=O)(O)O)c12` [psilocybin] was tested, and the “Infections and infestations, worst severity Severe: N (%)” value (10 mg) was 0, the “Infections and infestations: Events” value (10 mg) was 4 and the “Investigations, worst severity Mild: Events” value (10 mg) was 2. The “Investigations, worst severity Moderate: Events” value (10 mg) was 0, the “Investigations, worst severity Moderate: N (%)” value (10 mg) was 0 and the “Investigations, worst severity Severe: Events” value (10 mg) was 0. The “Investigations, worst severity Severe: N (%)” value (10 mg) was 0, the “Investigations: Events” value (10 mg) was 2 and the “Mental fatigue: Events” value (10 mg) was 0. For the same compound, the “Mental fatigue: N (%)” value (10 mg) was 0, the “Mood altered, worst severity Mild: Events” value (10 mg) was 2 and the “Mood altered, worst severity Moderate: Events” value (10 mg) was 8. The “Mood altered, worst severity Severe: Events” value (10 mg) was 9, the “Mood altered, worst severity Severe: N (%)” value (10 mg) was 6 (20.0) and the “Mood altered: Events” value (10 mg) was 23. The “Musculoskeletal and connective tissue disorders, worst severity Mild: Events” value (10 mg) was 0, the “Musculoskeletal and connective tissue disorders, worst severity Mild: N (%)” value (10 mg) was 0 and the “Musculoskeletal and connective tissue disorders, worst severity Moderate: Events” value (10 mg) was 1. For the same compound, the “Musculoskeletal and connective tissue disorders, worst severity Severe: Events” value (10 mg) was 0, the “Musculoskeletal and connective tissue disorders, worst severity Severe: N (%)” value (10 mg) was 0 and the “Musculoskeletal and connective tissue disorders: Events” value (10 mg) was 1. For the same compound, the “Nausea: Events” value (10 mg) was 1, the “Nervous system disorders, worst severity Mild: Events” value (10 mg) was 23 and the “Nervous system disorders, worst severity Moderate: Events” value (10 mg) was 8. The “Nervous system disorders, worst severity Moderate: N (%)” value (10 mg) was 6 (20.0), the “Nervous system disorders, worst severity Severe: Events” value (10 mg) was 0 and the “Nervous system disorders, worst severity Severe: N (%)” value (10 mg) was 0. For the same compound, the “Nervous system disorders: Events” value (10 mg) was 35, the “Paraesthesia, worst severity Mild: Events” value (10 mg) was 4 and the “Paraesthesia, worst severity Moderate: Events” value (10 mg) was 0. The “Paraesthesia, worst severity Moderate: N (%)” value (10 mg) was 0, the “Paraesthesia, worst severity Severe: Events” value (10 mg) was 0 and the “Paraesthesia, worst severity Severe: N (%)” value (10 mg) was 0. For the same compound, the “Paraesthesia: Events” value (10 mg) was 4, the “Psychiatric disorders, worst severity Mild: Events” value (10 mg) was 6 and the “Psychiatric disorders, worst severity Moderate: Events” value (10 mg) was 29. The “Psychiatric disorders, worst severity Severe: Events” value (10 mg) was 21, the “Respiratory, thoracic and mediastinal disorders: Events” value (10 mg) was 0 and the “Respiratory, thoracic and mediastinal disorders: N (%)” value (10 mg) was 0. For the same compound, the “Somatic hallucination, worst severity Mild: Events” value (10 mg) was 1, the “Somatic hallucination, worst severity Moderate: Events” value (10 mg) was 7 and the “Somatic hallucination, worst severity Severe: Events” value (10 mg) was 0. The “Somatic hallucination, worst severity Severe: N (%)” value (10 mg) was 0, the “Somatic hallucination: Events” value (10 mg) was 8 and the “Tension headache, worst severity Mild: Events” value (10 mg) was 1. For the same compound, the “Tension headache, worst severity Moderate: Events” value (10 mg) was 2, the “Tension headache, worst severity Severe: Events” value (10 mg) was 0 and the “Tension headache, worst severity Severe: N (%)” value (10 mg) was 0. For the same compound, the “Tension headache: Events” value (10 mg) was 3, the “Tension headache: N (%)” value (10 mg) was 3 (10.0) and the “Time perception altered, worst severity Mild: Events” value (10 mg) was 1. The “Time perception altered, worst severity Moderate: Events” value (10 mg) was 1, the “Time perception altered, worst severity Severe: Events” value (10 mg) was 0 and the “Time perception altered, worst severity Severe: N (%)” value (10 mg) was 0. The “Time perception altered: Events” value (10 mg) was 2, the “Incidence of Illusion, Hallucination (visual), Mood altered, Headache, Fatigue and Euphoric mood compared to placebo” value (10 mg and 25 mg) was “higher” and the “Majority of the severe TEAEs (system organ class)” value (10 mg and 25 mg arms) was “psychiatric disorders”. The “Serious adverse events or adverse events that led to withdrawal” value (10 mg and 25 mg, 12-week study) was “no serious adverse events or adverse events that led to withdrawal”, the “Reported 'Mood altered' events: Being less judgmental” value (10 mg psilocybin (n = 30)) was 1 and the “Reported 'Mood altered' events: Calm” value (10 mg psilocybin (n = 30)) was 0. For the same compound, the “Reported 'Mood altered' events: Clarity of thought” value (10 mg psilocybin (n = 30)) was 0, the “Reported 'Mood altered' events: Contemplative state” value (10 mg psilocybin (n = 30)) was 1 and the “Reported 'Mood altered' events: Feeling more moody/sensitive” value (10 mg psilocybin (n = 30)) was 1. For the same compound, the “Reported 'Mood altered' events: Feeling of adrenaline release” value (10 mg psilocybin (n = 30)) was 0, the “Reported 'Mood altered' events: Feeling rested” value (10 mg psilocybin (n = 30)) was 1 and the “Reported 'Mood altered' events: Increased compassion” value (10 mg psilocybin (n = 30)) was 0. For the same compound, the “Reported 'Mood altered' events: Increased creativity” value (10 mg psilocybin (n = 30)) was 0, the “Reported 'Mood altered' events: Increased empathy” value (10 mg psilocybin (n = 30)) was 2 and the “Reported 'Mood altered' events: Increased sense of connectedness” value (10 mg psilocybin (n = 30)) was 0. The “Reported 'Mood altered' events: Increased wit” value (10 mg psilocybin (n = 30)) was 1, the “Reported 'Mood altered' events: Introspection” value (10 mg psilocybin (n = 30)) was 5 and the “Reported 'Mood altered' events: Laughter” value (10 mg psilocybin (n = 30)) was 1. The “Reported 'Mood altered' events: More socially upbeat” value (10 mg psilocybin (n = 30)) was 0, the “Reported 'Mood altered' events: Negative mood” value (10 mg psilocybin (n = 30)) was 0 and the “Reported 'Mood altered' events: Reflections” value (10 mg psilocybin (n = 30)) was 3. For the same compound, the “Reported 'Mood altered' events: Saw themselves from a new perspective” value (10 mg psilocybin (n = 30)) was 0, the “Reported 'Mood altered' events: Sense of oneness” value (10 mg psilocybin (n = 30)) was 4 and the “Reported 'Mood altered' events: Sense of openness” value (10 mg psilocybin (n = 30)) was 1. The “Reported 'Mood altered' events: Unusual appreciation of music” value (10 mg psilocybin (n = 30)) was 0, the “Any TEAE: % of subjects” value (10 mg, listed as Psilocybin) was “(96.7) %” and the “AEs potentially related to study treatment, % of AEs in arm” value (25 mg) was 95.9%. The “Affect lability, worst severity Mild: Events” value (25 mg) was 2, the “Affect lability, worst severity Moderate: Events” value (25 mg) was 1 and the “Affect lability, worst severity Severe: Events” value (25 mg) was 0. The “Affect lability, worst severity Severe: N (%)” value (25 mg) was 0, the “Affect lability: Events” value (25 mg) was 3 and the “Affect lability: N (%)” value (25 mg) was 3 (10.0). The “Any Selected TEAE: % of subjects” value (25 mg) was “(90.0) %”, the “Any Selected TEAE: N (%)” value (25 mg) was 27 and the “Any TEAE leading to death: Events” value (25 mg) was 0. The “Any TEAE leading to death: N (%)” value (25 mg) was 0, the “Any TEAE leading to study discontinuation: Events” value (25 mg) was 0 and the “Any TEAE leading to study discontinuation: N (%)” value (25 mg) was 0. The “Any TEAE related to study treatment: % of subjects” value (25 mg) was “(96.7) %”, the “Any TEAE related to study treatment: N (%)” value (25 mg) was 29 and the “Any TEAE, worst severity Mild: Events” value (25 mg) was 14. The “Any TEAE, worst severity Mild: N (%)” value (25 mg) was 3 (10.0), the “Any TEAE, worst severity Moderate: Events” value (25 mg) was 52 and the “Any TEAE, worst severity Severe: Events” value (25 mg) was 29. For the same compound, the “Any TEAE: % of subjects” value (25 mg) was 96.7%, the “Any serious TEAE related to study treatment: Events” value (25 mg) was 0 and the “Any serious TEAE related to study treatment: N (%)” value (25 mg) was 0. For the same compound, the “Any serious TEAE: Events” value (25 mg) was 0 and the “Any serious TEAE: N (%)” value (25 mg) was 0.
